Our source for the IC50 values is patent US20260070945A1, “MACROCYCLIC IMMUNOMODULATORS” (Bristol-Myers Squibb Company, priority 2022, published 2026).

Where a SMILES comes first, the peptide text is derived from it. Bridges are numbered along the chain shown (N, C = ends). [ ]: non-standard residue; d: D form. The star is where a group is joined. ξ: configuration not given here. Phe(4-COOH) = N[C@@H](Cc1ccc(C(=O)O)cc1)C(=O)O; Bip = N[C@@H](Cc1ccc(-c2ccccc2)cc1)C(=O)O; Phe(3-Me) = Cc1cccc(C[C@H](N)C(=O)O)c1; 4Pal = N[C@@H](Cc1ccncc1)C(=O)O; Cha = N[C@@H](CC1CCCCC1)C(=O)O; Thr(3ξ) = CC(O)[C@H](N)C(=O)O; NMeS = CN[C@@H](CO)C(=O)O; Carboxymethyl = O=C(O)C*; NMeA = CN[C@@H](C)C(=O)O; Aun = NCCCCCCCCCCC(=O)O; Dab = NCC[C@H](N)C(=O)O; AEEA = NCCOCCOCC(=O)O; Sar = CNCC(=O)O

T1 sequence (Q15116 25-288): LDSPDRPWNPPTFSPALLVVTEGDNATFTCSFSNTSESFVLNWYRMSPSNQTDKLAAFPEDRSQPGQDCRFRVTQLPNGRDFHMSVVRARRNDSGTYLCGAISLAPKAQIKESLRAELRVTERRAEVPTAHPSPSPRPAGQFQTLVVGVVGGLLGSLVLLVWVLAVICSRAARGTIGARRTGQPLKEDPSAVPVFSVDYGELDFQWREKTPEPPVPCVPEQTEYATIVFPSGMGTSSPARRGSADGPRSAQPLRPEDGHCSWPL

The test has as its target T1, PD-1/PD-L1 interaction (PE-labeled human PD-L1-Ig binding to Jurkat cell line over-expressing human PD-1) (Homo sapiens, UniProt Q15116).
T1 construct: expressed in transfected cells; host or cells: Jurkat
In words: Jurkat-PD-1 Cell Binding High-Content Screening Assay (CBA). As to conditions: Jurkat-hPD-1 cells, PE-labeled PD-L1-Ig 20 nM final; read-out: Jurkat HPD1 PDL1 IC50. A digest of the protocol: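 High-content imaging read-out of PE-PD-L1-Ig binding (20 nM final, 1 h) to Jurkat-hPD-1 cells, after 2 h compound exposure at 37 °C in DMEM with 10% FCS. Nuclei counterstained with Hoechst 33342 after paraformaldehyde fixation.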
For the molecule `Cc1cccc(C[C@@H]2NC(=O)[C@H](CC(=O)O)NC(=O)[C@H](Cc3ccc(OCC(=O)O)cc3)NC(=O)[C@H](C(C)O)NC(=O)CSC[C@@H](C(=O)N(C)CC(=O)NCCCCCCCCCCC(=O)O)NC(=O)[C@H](CCC(=O)O)NC(=O)[C@H](C(C)C)NC(=O)[C@H](CC3CCCCC3)NC(=O)[C@H](CCN)NC(=O)[C@@H](CC(C)C)NC(=O)[C@H](C)N(C)C(=O)[C@H](C(C)C)NC(=O)[C@H](Cc3ccc(-c4ccccc4)cc3)NC(=O)[C@H](Cc3ccc(O)cc3)NC2=O)c1` (stereo partly drawn) [Example 2263] ({CH2CO}-[Thr(3ξ)]Y(Carboxymethyl)D[Phe(3-Me)]Y[Bip]V[NMeA][dL][Dab][Cha]VEC[Sar][Aun]-OH; thioether N-14), the IC50 worked out at 334 nM.
To `Cc1cccc(C[C@@H]2NC(=O)[C@H](CC(=O)O)NC(=O)[C@H](Cc3ccc(OCC(=O)O)cc3)NC(=O)[C@H](C(C)O)NC(=O)CSC[C@@H](C(=O)N(C)CC(=O)NCCCCCCCCCCC(=O)O)NC(=O)[C@H](CCC(N)=O)NC(=O)[C@H](C(C)C)NC(=O)[C@H](CC3CCCCC3)NC(=O)[C@H](CCN)NC(=O)[C@@H](CC(C)C)NC(=O)[C@H](C)N(C)C(=O)[C@H](C(C)C)NC(=O)[C@H](Cc3ccc(-c4ccccc4)cc3)NC(=O)[C@H](Cc3ccc(O)cc3)NC2=O)c1` (stereo partly drawn) [Example 2265] ({CH2CO}-[Thr(3ξ)]Y(Carboxymethyl)D[Phe(3-Me)]Y[Bip]V[NMeA][dL][Dab][Cha]VQC[Sar][Aun]-OH; thioether N-14) belongs 427 nM; to `Cc1cccc(C[C@@H]2NC(=O)[C@H](CC(=O)O)NC(=O)[C@H](Cc3ccc(OCC(=O)O)cc3)NC(=O)[C@H](CC(N)=O)NC(=O)CSC[C@@H](C(=O)N(C)CC(=O)NCCCCCCCCCCC(=O)O)NC(=O)[C@H](CCC(=O)O)NC(=O)[C@H](C(C)C)NC(=O)[C@H](CC3CCCCC3)NC(=O)[C@H](CCN)NC(=O)[C@@H](CC(C)C)NC(=O)[C@H](C)N(C)C(=O)[C@H](C(C)C)NC(=O)[C@H](Cc3ccc(-c4ccccc4)cc3)NC(=O)[C@H](Cc3ccc(O)cc3)NC2=O)c1` [Example 2266] ({CH2CO}-NY(Carboxymethyl)D[Phe(3-Me)]Y[Bip]V[NMeA][dL][Dab][Cha]VEC[Sar][Aun]-OH; thioether N-14), 334 nM; to `Cc1cccc(C[C@@H]2NC(=O)[C@H](CC(=O)O)NC(=O)[C@H](Cc3ccc(OCC(=O)O)cc3)NC(=O)[C@H](CCCNC(=N)N)NC(=O)CSC[C@@H](C(=O)N[C@@H](CCN)C(=O)NCCCCCCCCCCC(=O)O)NC(=O)[C@H](CCC(N)=O)NC(=O)[C@H](C(C)C)NC(=O)[C@H](CC3CCCCC3)NC(=O)[C@H](CCN)NC(=O)[C@@H](CC(C)C)NC(=O)[C@H](C)N(C)C(=O)[C@H](Cc3ccc(O)cc3)NC(=O)[C@H](Cc3ccc(-c4ccccc4)cc3)NC(=O)[C@H](C(C)C)NC2=O)c1` [Example 2269] ({CH2CO}-RY(Carboxymethyl)D[Phe(3-Me)]V[Bip]Y[NMeA][dL][Dab][Cha]VQC[Dab][Aun]-OH; thioether N-14), 11.9 nM.
To `Cc1cccc(C[C@@H]2NC(=O)[C@H](CC(=O)O)NC(=O)[C@H](Cc3ccc(OCC(=O)O)cc3)NC(=O)[C@H](C(C)O)NC(=O)CSC[C@@H](C(=O)N(C)CC(=O)NCCOCCOCC(=O)NCCCCCCCCCCC(=O)O)NC(=O)[C@H](CCC(=O)O)NC(=O)[C@H](C(C)C)NC(=O)[C@H](CC3CCCCC3)NC(=O)[C@H](CCN)NC(=O)[C@@H](CC(C)C)NC(=O)[C@H](C)N(C)C(=O)[C@H](Cc3ccc(O)cc3)NC(=O)[C@H](Cc3ccc(-c4ccccc4)cc3)NC(=O)[C@H](C(C)C)NC2=O)c1` (stereo partly drawn) [Example 2270] ({CH2CO}-[Thr(3ξ)]Y(Carboxymethyl)D[Phe(3-Me)]V[Bip]Y[NMeA][dL][Dab][Cha]VEC[Sar][AEEA][Aun]-OH; thioether N-14) belongs 802 nM; to `CC(=O)NCCCC[C@@H]1NC(=O)[C@H](C(C)C)NC(=O)[C@H](CC2CCCCC2)NC(=O)[C@H](CCN)NC(=O)[C@@H](CC(C)C)NC(=O)[C@H](C)N(C)C(=O)[C@H](Cc2ccc(O)cc2)NC(=O)[C@H](Cc2ccc(-c3ccccc3)cc2)NC(=O)[C@H](C(C)C)NC(=O)[C@H](Cc2cccc(C)c2)NC(=O)[C@H](CC(=O)O)NC(=O)[C@H](Cc2ccc(OCC(=O)O)cc2)NC(=O)[C@H](CC(N)=O)NC(=O)CSC[C@@H](C(=O)N(C)CC(=O)NCCCCCCCCCCC(=O)O)NC1=O` [Example 2271] ({CH2CO}-NY(Carboxymethyl)D[Phe(3-Me)]V[Bip]Y[NMeA][dL][Dab][Cha]VK(Ac)C[Sar][Aun]-OH; thioether N-14), 260 nM; to `CC(=O)NCCCC[C@@H]1NC(=O)[C@H](C(C)C)NC(=O)[C@H](CC2CCCCC2)NC(=O)[C@H](CCN)NC(=O)[C@@H](CC(C)C)NC(=O)[C@H](C)N(C)C(=O)[C@H](Cc2ccc(O)cc2)NC(=O)[C@H](Cc2ccc(-c3ccccc3)cc2)NC(=O)[C@H](C(C)C)NC(=O)[C@H](Cc2cccc(C)c2)NC(=O)[C@H](CC(=O)O)NC(=O)[C@H](Cc2ccc(OCC(=O)O)cc2)NC(=O)[C@H](Cc2cnc[nH]2)NC(=O)CSC[C@@H](C(=O)N(C)CC(=O)NCCCCCCCCCCC(=O)O)NC1=O` [Example 2272] ({CH2CO}-HY(Carboxymethyl)D[Phe(3-Me)]V[Bip]Y[NMeA][dL][Dab][Cha]VK(Ac)C[Sar][Aun]-OH; thioether N-14), 231 nM.
In the case of `CC(=O)NCCCC[C@@H]1NC(=O)[C@H](C(C)C)NC(=O)[C@H](CC2CCCCC2)NC(=O)[C@H](CCN)NC(=O)[C@@H](CC(C)C)NC(=O)[C@H](C)N(C)C(=O)[C@H](Cc2ccc(O)cc2)NC(=O)[C@H](Cc2ccc(-c3ccccc3)cc2)NC(=O)[C@H](C(C)C)NC(=O)[C@H](Cc2cccc(C)c2)NC(=O)[C@H](CC(=O)O)NC(=O)[C@H](Cc2ccc(OCC(=O)O)cc2)NC(=O)[C@H](CCCNC(=N)N)NC(=O)CSC[C@@H](C(=O)N(C)CC(=O)NCCCCCCCCCCC(=O)O)NC1=O` [Example 2273] ({CH2CO}-RY(Carboxymethyl)D[Phe(3-Me)]V[Bip]Y[NMeA][dL][Dab][Cha]VK(Ac)C[Sar][Aun]-OH; thioether N-14), the 50% inhibitory concentration (IC50) turned out to be 321 nM.
In the case of `CC(=O)NCCCC[C@@H]1NC(=O)[C@H](C(C)C)NC(=O)[C@H](CC2CCCCC2)NC(=O)[C@H](CCN)NC(=O)[C@@H](CC(C)C)NC(=O)[C@H](C)N(C)C(=O)[C@H](Cc2ccc(O)cc2)NC(=O)[C@H](Cc2ccc(-c3ccccc3)cc2)NC(=O)[C@H](C(C)C)NC(=O)[C@H](Cc2cccc(C)c2)NC(=O)[C@H](CC(=O)O)NC(=O)[C@H](Cc2ccc(OCC(=O)O)cc2)NC(=O)[C@H](C(C)O)NC(=O)CSC[C@@H](C(=O)N(C)CC(=O)NCCCCCCCCCCC(=O)O)NC1=O` (stereo partly drawn) [Example 2274] ({CH2CO}-[Thr(3ξ)]Y(Carboxymethyl)D[Phe(3-Me)]V[Bip]Y[NMeA][dL][Dab][Cha]VK(Ac)C[Sar][Aun]-OH; thioether N-14), the IC50 was 85.5 nM.
Turning to `CC(=O)NCCCC[C@@H]1NC(=O)[C@H](C(C)C)NC(=O)[C@H](CC2CCCCC2)NC(=O)[C@H](CCN)NC(=O)[C@@H](CC(C)C)NC(=O)[C@H](C)N(C)C(=O)[C@H](Cc2ccc(O)cc2)NC(=O)[C@H](Cc2ccc(-c3ccccc3)cc2)NC(=O)[C@H](C(C)C)NC(=O)[C@H](Cc2cccc(C)c2)NC(=O)[C@H](CC(=O)O)NC(=O)[C@H](Cc2ccc(OCC(=O)O)cc2)NC(=O)[C@H](Cc2ccc(O)cc2)NC(=O)CSC[C@@H](C(=O)N(C)CC(=O)NCCCCCCCCCCC(=O)O)NC1=O` [Example 2275] ({CH2CO}-YY(Carboxymethyl)D[Phe(3-Me)]V[Bip]Y[NMeA][dL][Dab][Cha]VK(Ac)C[Sar][Aun]-OH; thioether N-14), the IC50 stood at 282 nM.
On to `CC(=O)NCCCC[C@@H]1NC(=O)[C@H](C(C)C)NC(=O)[C@H](CC2CCCCC2)NC(=O)[C@H](CCN)NC(=O)[C@@H](CC(C)C)NC(=O)[C@H](C)N(C)C(=O)[C@H](Cc2ccc(O)cc2)NC(=O)[C@H](Cc2ccc(-c3ccccc3)cc2)NC(=O)[C@H](C(C)C)NC(=O)[C@H](Cc2cccc(C)c2)NC(=O)[C@H](CC(=O)O)NC(=O)[C@H](Cc2ccc(OCC(=O)O)cc2)NC(=O)[C@H](Cc2ccncc2)NC(=O)CSC[C@@H](C(=O)N(C)CC(=O)NCCCCCCCCCCC(=O)O)NC1=O` [Example 2276] ({CH2CO}-[4Pal]Y(Carboxymethyl)D[Phe(3-Me)]V[Bip]Y[NMeA][dL][Dab][Cha]VK(Ac)C[Sar][Aun]-OH; thioether N-14), for which the IC50 turned out to be 174 nM.
Consider `Cc1cccc(C[C@@H]2NC(=O)[C@H](CC(=O)O)NC(=O)[C@H](Cc3ccc(OCC(=O)O)cc3)NC(=O)[C@H](CO)N(C)C(=O)CSC[C@@H](C(=O)NCCOCCOCC(=O)NCCCCCCCCCCC(=O)O)NC(=O)[C@H](CCCNC(=N)N)NC(=O)[C@H](C(C)C)NC(=O)[C@H](CC3CCCCC3)NC(=O)[C@H](CCN)NC(=O)[C@@H](CC(C)C)NC(=O)[C@H](C)N(C)C(=O)[C@H](C(C)C)NC(=O)[C@H](Cc3ccc(-c4ccccc4)cc3)NC(=O)[C@H](CC(C)C)NC2=O)c1` [Example 2277] ({CH2CO}-[NMeS]Y(Carboxymethyl)D[Phe(3-Me)]L[Bip]V[NMeA][dL][Dab][Cha]VRC[AEEA][Aun]-OH; thioether N-14), for which the IC50 worked out at 18.7 nM.
As for `Cc1cccc(C[C@@H]2NC(=O)[C@H](CC(=O)O)NC(=O)[C@H](Cc3ccc(C(=O)O)cc3)NC(=O)[C@H](Cc3ccc(OCC(=O)O)cc3)NC(=O)CSC[C@@H](C(=O)NCCOCCOCC(=O)NCCCCCCCCCCC(=O)O)NC(=O)[C@H](CCCNC(=N)N)NC(=O)[C@H](C(C)C)NC(=O)[C@H](CC3CCCCC3)NC(=O)[C@H](CCN)NC(=O)[C@@H](CC(C)C)NC(=O)[C@H](CO)N(C)C(=O)[C@H](C(C)C)NC(=O)[C@H](Cc3ccc(-c4ccccc4)cc3)NC(=O)[C@H](CC(C)C)NC2=O)c1` [Example 2278] ({CH2CO}-Y(Carboxymethyl)[Phe(4-COOH)]D[Phe(3-Me)]L[Bip]V[NMeS][dL][Dab][Cha]VRC[AEEA][Aun]-OH; thioether N-14), the IC50 was found to be 34.2 nM.
